{"source": "patent US5885994A", "about": "“Tetrahydroquinoxaline dopamine D4 receptor antagonists” (Warner-Lambert Company, priority 1998, dated 1999)", "target": "T1, human D4.2 receptor (Homo sapiens, UniProt P21917, DEL265-296)", "T1 construct": "expressed in transfected cells; host or cells: CHO K1 cells", "T1 sequence (P21917 with tags, fused parts or gaps DEL265-296)": "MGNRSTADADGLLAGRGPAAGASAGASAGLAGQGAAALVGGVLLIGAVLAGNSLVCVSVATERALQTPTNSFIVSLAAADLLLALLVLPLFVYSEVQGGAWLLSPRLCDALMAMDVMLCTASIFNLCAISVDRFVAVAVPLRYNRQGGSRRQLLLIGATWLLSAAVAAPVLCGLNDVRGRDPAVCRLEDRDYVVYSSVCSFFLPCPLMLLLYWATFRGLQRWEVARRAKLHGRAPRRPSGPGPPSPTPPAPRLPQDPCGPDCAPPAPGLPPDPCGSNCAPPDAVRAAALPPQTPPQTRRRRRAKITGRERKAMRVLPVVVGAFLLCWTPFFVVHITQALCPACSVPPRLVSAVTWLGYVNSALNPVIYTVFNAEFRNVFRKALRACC", "assay": "Inhibition of [3H]spiperone binding to human dopamine D4.2 receptors", "conditions": "human D4.2, CHO K1 membranes", "excerpt": "A cell line expressing human dopamine D2 (Long form) receptors was purchased from Oregon Health Sciences University, Portland, Oreg. The D2 receptor cDNA was subcloned into an expression vector, pRc/CMV. The plasmids were transfected by electroporation into CHO K1 cells. A single stable transfectant, resistant to the antibiotic 418, was isolated and selected for use in the binding studies. For D4 binding, CHO K1 cells stably transfected to express the human recombinant dopamine D4.2 receptor subtype, as described by Shih, et al., \"The expression and functional characterization of human dopamine D4.2 receptor in CHO K1 cells,\" Soc. Neurosci., 1995;21(Part 1):621.\nCHO K1 cells expressing either human D2 and D4.2 receptors were grown in 162 cm^2 culture flasks in F12 medium (Gibco Laboratories, Grand Island, N.Y.) supplemented with 10% fetal bovine serum (FBS, Hyclone, Logan, Utah) in an atmosphere of 5% CO2 /95% air at 37° C. Cells were grown until confluent, after which growth medium was removed and replaced with 0.02% ethylene diamine tetracetate (EDTA) in a phosphate-buffered saline solution (Sigma Chemical Co., St. Louis, Mo.) and scraped from the flasks. The cells were centrifuged at about 1000×g for 10 minutes at […] and then resuspended in TEM buffer (25 mM Tris-HCl, pH 7.4, 5 mM EDTA, and 6 mM MgCl2) for D2 or the D4.2 buffer (50 mM Tris-HCl, pH 7.4, 5 mM EDTA, 1.5 mM CaCl2, 5 mM KCl, and 120 mM NaCl) and homogenized. The membranes were pelleted by centrifugation at 20,000×g at […] for 20 minutes. Then the pellets were resuspended in appropriate buffer at 1 mL/flask and stored at -70° C. until used in the receptor binding assay.\nReceptor Binding Assays: D2,D4.2 Dopamine Receptors\nAfter 60 minutes incubation at 25° C., the incubations were terminated by rapid filtration through Whatmann F/B lass fibre filters (soaked for 1 hour in 0.5% polyethylenimine) on a cell harvester, with three washes of 1 mL ice-cold buffer. Individual filter disks containing the bound ligand were placed in counting vials with 4 mL of scintillation fluid (Ready Gel, Beckman Instrument Inc., Fullerton, Calif.) and then counted in a Beckman LS-6800 liquid scintillation counter at an efficiency of 45%. Nonspecific binding was defined in presence of 1 mM of haloperidol.\nSaturation and competition binding data were analyzed using an iterative nonlinear least-square curve-fitting Ligand program. In competition experiments, apparent Ki values were calculated from IC50 values by method of Cheng and Prusoff, \"Relationship between the inhibition constant (Ki) and the concentration of inhibitor which causes 50% inhibition (IC50) of an enzymatic reaction,\" Biochem. Pharmacol., 1973;22:3099-3108. Experimental compounds were made up as stock solutions in dimethyl sulfoxide (DMSO). […] Each observation was carried out in triplicate. To allow these calculations, Ki values were measured for the interaction of various ligands with the receptor. […]"}
{"compound": "Cc1ccc(N2CCN(Cc3ccc4c(c3)NCCN4)CC2)cc1C", "note": "[Example 2, 6-[4-(3,4-Dimethylphenyl)piperazin-1-ylmethyl]-1,2,3,4-tetrahydroquinoxaline]", "values": [{"measurement": "IC50", "result": 2.8, "unit": "nM"}]}
